Values joined by “and” are separate entries in the source; they are usually repeats but may differ in a detail not shown here. Identical values can stand only once.

This assay deals with VSV. In kind it is cell-based, Vesicular stomatitis virus.

Human IFNγ: the “Effect on virus yield” value is recorded as “had no effect”.

B1: muIFNγ (protein, UniProt P01580 23-155, looked up)
Interferon gamma: HGTVIESLESLNNYFNSSGIDVEEKSLFLDIWRNWQKDGDMKILQSQIISFYLRLFEVLKDNQAISNNISVIESHLITTFFSNSKAKKDAFMSIAKFEVNNPQVQRQAFNELIRVVHQLLPESSLRKRKRSRC
As for B1, the Virus yield is 1.2 × 10^8 and 1.6 × 10^10.
